Columns and labels:
[1] = biological target: T1, ALK (Homo sapiens, UniProt Q9UM73); assay: Kinase inhibitory activity (33P-ATP, filtration-binding method, Reaction Biology Corp.); assay type: biochemical; conditions: read-out: Half maximal inhibitory concentration IC50 for kinases, ALK
T1 construct: purchased Reaction Biology Corp
Experimental: The mixture was incubated at room temperature for 20 minutes, added with ^33P-ATP at a certain concentration to start the reaction, and then incubated at room temperature for 120 minutes. Finally, the radioactivity of the reactant was detected by the filtration-binding method. The final kinase activity was expressed as the ratio of the remaining kinase activity in the test sample to the kinase activity of the DMSO control. The dose-response curves were fitted and IC50 values were calculated by GraphPad software.

[2] = biological target: T2, Ba/F3 SLC34A2-ROS1-WT (Homo sapiens, UniProt P08922); assay: Inhibitory activity against cell proliferation (CellTiter-Glo, 72 hours); assay type: cell-based; conditions: read-out: Half maximal inhibitory concentration IC50 of cells, Ba/F3 SLC34A2-ROS1-WT
T2 construct: fused on or other part: N-terminal part of SLC34A2 as fusion partner (part of the key); O95436 (Sodium-dependent phosphate transport protein 2B)
Experimental: (§1) Adenosine Triphosphate (ATP) is an energy carrier commonly used in various life activities in nature, and is the minimum unit for energy storage and transfer. The CellTiter-Glo™ cell viability assay kit uses luciferase as an assay agent, which requires the involvement of ATP in luminescence. The CellTiter-Glo™ reagent is added into cell culture medium to measure the luminescence value. The luminescence signal is directly proportional to the amount of ATP in the system, and the ATP is positively correlated with the number of viable cells. Therefore, the proliferation of cells can be detected by detecting the ATP content using the CellTiter-Glo kit.
(§2) a) Cells in the logarithmic growth phase were collected and counted using a […]. The cell viability was detected by the trypan blue exclusion method, and the cell viability was kept over 90%.
(§3) b) The cell concentration was adjusted; 90 μL of the cell suspension was added to a 96-well plate.
(§4) a) A 10-fold compound solution was prepared, with the highest concentration being 10 μM (a total of 9 concentrations, 3-fold dilution). 10 μL of compound solution was added to each well of a 96-well plate inoculated with cells, and three duplicate wells were set for each compound concentration.
(§5) a) The CTG reagent was thawed and the cell plate was equilibrated to room temperature for 30 minutes.
(§6) b) An equal volume of CTG solution was added to each well.
(§7) c) The plate was shaken on an orbital shaker for 5 minutes to lyse the cells.
(§8) d) The cell plate was placed at room temperature for 20 minutes to stabilize the luminescence signal.
(§9) e) The luminescence value was read.
(§10) The data were analyzed using GraphPad Prism 5.0 software, fitted with nonlinear S-curve regression to give dose-response curves, and IC50 values were calculated therefrom.

[3] = biological target: T3, BaF3 ETV6-NTRK3-G623R (Homo sapiens, UniProt Q16288, G623R, cells depend on it); assay: as above; assay type: cell-based; conditions: read-out: Half maximal inhibitory concentration IC50 of cells, BaF3 ETV6-NTRK3-G623R
T3 construct: fused on or other part: N-terminal part of ETV6 (TEL) as fusion partner (part of the key); P41212 (Transcription factor ETV6)
Experimental: as §1, with “kit. In this test, the cell lines used are Ba/F3 LMNA-NTRK1-WT, Ba/F3 LMNA-NTRK1-F589L, BaF3 LMNA-NTRK1-G595R, BaF3 LMNA-NTRK1-G667A, BaF3 ETV6-NTRK3-WT, BaF3 ETV6-NTRK3-G623R, and Ba/F3 SLC34A2-ROS1-WT stable cell strains, 5000 cells/well.” for “kit.”
as §2, §3
c) Cells in the 96-well plate were incubated overnight at 37° C. with 5% CO2 and 95% humidity.
as §4
b) The cells in the 96-well plate added with compound were incubated for 72 hours at 37° C. with 5% CO2 and 95% humidity, followed by the CTG (CellTiter-Glo) analysis.
as §5, §6, §7, §8, §9, §10

[4] = test system: Ba/F3 ETV6-NTRK3-G623R cells; assay: Efficacy test in animals: subcutaneous xenograft, intragastric administration; assay type: in vivo, nude mice; conditions: 100 mg/kg bid
Experimental: Cells in the logarithmic growth phase were collected and resuspended in serum-free medium to a cell concentration of 2-4×10^7 cells/mL. An equal volume of matrigel was added to the cell suspension to achieve a final cell concentration of 1-2×10^7 cells/mL. 0.2 mL of tumor cell suspension was subcutaneously inoculated at the scapula of each nude mouse with the inoculation amount of 2-4×10^6 cells/mouse to prepare the animal models.

[5] = Animal body weight and general observations, Ba/F3 ETV6-NTRK3-G623R tumor-bearing nude mice; conditions: 100 mg/kg bid
Experimental: The mice in groups were intragastrically administrated on the next day, and the animal body weight and the long and short diameters of the tumor were measured once every other day.

T1 sequence (Q9UM73 19-1620): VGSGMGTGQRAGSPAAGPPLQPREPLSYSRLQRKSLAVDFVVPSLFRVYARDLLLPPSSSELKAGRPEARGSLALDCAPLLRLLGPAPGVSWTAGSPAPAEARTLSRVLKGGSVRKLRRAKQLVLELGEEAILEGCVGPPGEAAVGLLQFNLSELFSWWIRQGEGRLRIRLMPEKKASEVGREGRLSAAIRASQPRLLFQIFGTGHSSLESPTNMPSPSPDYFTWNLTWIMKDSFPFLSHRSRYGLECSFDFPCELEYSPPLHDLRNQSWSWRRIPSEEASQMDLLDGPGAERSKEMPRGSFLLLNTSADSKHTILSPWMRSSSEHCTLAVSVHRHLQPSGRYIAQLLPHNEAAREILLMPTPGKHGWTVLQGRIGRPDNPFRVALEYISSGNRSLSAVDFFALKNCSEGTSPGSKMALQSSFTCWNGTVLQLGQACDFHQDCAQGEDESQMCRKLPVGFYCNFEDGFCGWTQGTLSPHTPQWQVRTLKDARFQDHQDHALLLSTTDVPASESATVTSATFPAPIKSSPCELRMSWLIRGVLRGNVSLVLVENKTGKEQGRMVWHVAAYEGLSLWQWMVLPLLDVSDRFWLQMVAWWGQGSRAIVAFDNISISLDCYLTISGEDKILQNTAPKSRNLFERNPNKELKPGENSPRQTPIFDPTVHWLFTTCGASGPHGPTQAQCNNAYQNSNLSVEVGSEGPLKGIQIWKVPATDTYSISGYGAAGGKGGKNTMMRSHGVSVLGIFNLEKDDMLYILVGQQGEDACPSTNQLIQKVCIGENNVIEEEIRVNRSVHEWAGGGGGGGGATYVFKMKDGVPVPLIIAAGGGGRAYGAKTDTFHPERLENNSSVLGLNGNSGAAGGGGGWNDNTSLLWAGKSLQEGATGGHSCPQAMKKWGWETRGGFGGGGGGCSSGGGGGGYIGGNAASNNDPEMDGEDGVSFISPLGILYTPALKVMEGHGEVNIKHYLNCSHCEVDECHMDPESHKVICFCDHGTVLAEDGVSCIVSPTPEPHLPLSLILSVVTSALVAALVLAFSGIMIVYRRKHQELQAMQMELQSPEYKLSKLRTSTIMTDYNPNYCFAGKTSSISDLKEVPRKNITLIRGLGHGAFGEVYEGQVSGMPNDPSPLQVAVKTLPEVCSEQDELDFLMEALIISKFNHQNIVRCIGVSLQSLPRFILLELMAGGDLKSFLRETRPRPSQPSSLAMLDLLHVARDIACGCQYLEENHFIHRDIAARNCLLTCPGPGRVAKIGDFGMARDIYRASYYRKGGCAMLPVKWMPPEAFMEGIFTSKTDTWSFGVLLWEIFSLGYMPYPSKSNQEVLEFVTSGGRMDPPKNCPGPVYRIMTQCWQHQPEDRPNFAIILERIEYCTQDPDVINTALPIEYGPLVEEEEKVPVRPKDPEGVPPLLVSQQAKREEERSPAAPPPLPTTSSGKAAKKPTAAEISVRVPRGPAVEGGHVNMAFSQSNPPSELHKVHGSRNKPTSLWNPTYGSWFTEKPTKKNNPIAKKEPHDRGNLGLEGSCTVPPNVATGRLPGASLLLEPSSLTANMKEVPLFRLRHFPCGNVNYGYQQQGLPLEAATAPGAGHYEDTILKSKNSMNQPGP
T2 sequence (P08922 whole entry, stated change not applied, the tested form may be a part): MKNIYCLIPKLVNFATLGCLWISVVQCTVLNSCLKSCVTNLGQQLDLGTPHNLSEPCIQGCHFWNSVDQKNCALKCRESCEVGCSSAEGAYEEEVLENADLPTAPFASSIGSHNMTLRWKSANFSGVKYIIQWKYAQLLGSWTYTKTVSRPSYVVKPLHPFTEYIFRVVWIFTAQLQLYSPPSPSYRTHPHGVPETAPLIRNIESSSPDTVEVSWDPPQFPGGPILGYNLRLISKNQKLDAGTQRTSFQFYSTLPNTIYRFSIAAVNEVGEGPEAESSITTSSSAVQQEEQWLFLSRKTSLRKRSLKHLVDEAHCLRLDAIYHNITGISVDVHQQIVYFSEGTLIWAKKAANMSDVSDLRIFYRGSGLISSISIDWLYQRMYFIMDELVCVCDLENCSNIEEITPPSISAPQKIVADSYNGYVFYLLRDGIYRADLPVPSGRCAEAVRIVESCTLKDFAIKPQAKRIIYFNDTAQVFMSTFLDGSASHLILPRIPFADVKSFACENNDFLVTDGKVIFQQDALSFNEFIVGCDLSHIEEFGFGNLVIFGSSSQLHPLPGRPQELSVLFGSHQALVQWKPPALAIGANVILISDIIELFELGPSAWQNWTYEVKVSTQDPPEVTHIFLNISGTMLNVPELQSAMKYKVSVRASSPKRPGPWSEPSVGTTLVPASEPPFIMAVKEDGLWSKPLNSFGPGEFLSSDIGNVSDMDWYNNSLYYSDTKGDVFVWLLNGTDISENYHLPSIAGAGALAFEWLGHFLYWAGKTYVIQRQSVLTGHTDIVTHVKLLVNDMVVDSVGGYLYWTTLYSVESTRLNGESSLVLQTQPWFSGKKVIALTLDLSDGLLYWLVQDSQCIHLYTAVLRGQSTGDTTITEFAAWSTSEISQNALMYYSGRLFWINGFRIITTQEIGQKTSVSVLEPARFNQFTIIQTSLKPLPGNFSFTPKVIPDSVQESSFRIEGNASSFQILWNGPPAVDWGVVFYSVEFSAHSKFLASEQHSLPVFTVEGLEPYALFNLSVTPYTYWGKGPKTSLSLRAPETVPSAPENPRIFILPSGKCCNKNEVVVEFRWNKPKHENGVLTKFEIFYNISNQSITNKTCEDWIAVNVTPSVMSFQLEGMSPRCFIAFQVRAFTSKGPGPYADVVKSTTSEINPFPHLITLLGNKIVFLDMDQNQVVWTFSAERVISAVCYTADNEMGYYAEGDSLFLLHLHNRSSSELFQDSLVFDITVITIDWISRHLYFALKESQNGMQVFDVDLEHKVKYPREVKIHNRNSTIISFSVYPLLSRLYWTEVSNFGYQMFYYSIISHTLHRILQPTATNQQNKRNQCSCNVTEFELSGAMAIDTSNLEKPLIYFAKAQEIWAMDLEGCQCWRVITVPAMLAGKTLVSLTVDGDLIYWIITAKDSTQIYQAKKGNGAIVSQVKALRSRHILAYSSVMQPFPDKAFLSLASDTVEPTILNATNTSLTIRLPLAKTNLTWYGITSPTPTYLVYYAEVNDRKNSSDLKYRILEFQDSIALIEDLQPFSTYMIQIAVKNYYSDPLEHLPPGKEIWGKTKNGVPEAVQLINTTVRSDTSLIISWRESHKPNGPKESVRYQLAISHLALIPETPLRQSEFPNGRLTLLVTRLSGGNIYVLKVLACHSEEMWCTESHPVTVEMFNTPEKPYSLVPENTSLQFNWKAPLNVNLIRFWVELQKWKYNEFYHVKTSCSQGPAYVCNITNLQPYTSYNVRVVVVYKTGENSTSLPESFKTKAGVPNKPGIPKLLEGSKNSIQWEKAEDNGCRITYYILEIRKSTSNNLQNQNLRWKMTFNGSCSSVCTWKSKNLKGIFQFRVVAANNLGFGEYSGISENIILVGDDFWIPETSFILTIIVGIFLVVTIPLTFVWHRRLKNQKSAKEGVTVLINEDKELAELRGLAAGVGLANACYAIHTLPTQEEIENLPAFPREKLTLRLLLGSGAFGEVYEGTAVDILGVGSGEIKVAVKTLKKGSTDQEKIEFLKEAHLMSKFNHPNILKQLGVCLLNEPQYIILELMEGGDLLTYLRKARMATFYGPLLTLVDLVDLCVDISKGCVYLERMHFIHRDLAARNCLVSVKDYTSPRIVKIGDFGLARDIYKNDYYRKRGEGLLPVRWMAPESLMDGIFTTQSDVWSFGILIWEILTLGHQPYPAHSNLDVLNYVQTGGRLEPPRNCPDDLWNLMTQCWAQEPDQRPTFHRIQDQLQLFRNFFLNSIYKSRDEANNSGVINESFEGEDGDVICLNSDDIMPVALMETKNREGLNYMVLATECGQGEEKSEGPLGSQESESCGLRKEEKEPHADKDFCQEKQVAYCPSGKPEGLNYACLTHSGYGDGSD
T3 sequence (Q16288 whole entry G623R, the tested form may be a part): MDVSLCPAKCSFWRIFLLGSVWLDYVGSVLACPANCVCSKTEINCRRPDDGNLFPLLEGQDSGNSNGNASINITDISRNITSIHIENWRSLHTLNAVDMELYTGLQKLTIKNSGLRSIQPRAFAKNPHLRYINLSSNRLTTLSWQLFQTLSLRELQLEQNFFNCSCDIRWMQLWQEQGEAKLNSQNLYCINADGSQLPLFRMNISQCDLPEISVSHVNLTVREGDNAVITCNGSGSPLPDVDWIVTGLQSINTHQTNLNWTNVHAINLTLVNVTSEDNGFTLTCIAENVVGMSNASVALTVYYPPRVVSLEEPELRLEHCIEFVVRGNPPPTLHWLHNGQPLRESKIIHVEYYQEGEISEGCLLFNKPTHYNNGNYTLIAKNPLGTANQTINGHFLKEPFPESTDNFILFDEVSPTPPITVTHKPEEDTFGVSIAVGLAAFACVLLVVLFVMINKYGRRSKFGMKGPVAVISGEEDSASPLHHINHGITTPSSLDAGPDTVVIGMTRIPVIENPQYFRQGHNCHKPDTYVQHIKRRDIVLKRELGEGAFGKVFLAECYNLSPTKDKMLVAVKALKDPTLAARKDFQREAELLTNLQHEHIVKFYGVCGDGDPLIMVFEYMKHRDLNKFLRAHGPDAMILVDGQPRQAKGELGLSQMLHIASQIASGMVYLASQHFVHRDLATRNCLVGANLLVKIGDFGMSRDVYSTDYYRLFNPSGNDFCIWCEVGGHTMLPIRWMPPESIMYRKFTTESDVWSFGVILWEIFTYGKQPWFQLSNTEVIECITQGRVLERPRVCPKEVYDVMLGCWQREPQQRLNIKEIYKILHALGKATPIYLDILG

Question: Which IC50 [1] does the source give for C[C@@H]1CCc2ncc(F)cc2[C@H]2CCCN2c2ccn3ncc(c3n2)C(=O)N1 [LOXO-195, reference compound] here?
Answer: The IC50 was 274 nM.

Question: What about the GI50 [2] of the same compound?
Answer: Its GI50 is 36.7 nM.

Question: And the GI50 [3]?
Answer: Its GI50 is 2.7 nM.

Question: And the Tumor volume ([4]; Day 0)?
Answer: Its Tumor volume is 200.27 ± 30.38 mm^3.

Question: What about the Tumor volume ([4]; Day 3) of the same compound?
Answer: The Tumor volume was 282.91 ± 82.61 mm^3.

Question: What about the Tumor volume ([4]; Day 5) of the same compound?
Answer: The Tumor volume was 306.00 ± 115.66 mm^3.

Question: And the Tumor volume ([4]; Day 7)?
Answer: The Tumor volume was 364.50 ± 212.47 mm^3.

Question: And the Tumor volume ([4]; Day 9)?
Answer: Its Tumor volume is 334.53 ± 184.22 mm^3.

Question: What about the Tumor volume ([4]; Day 11) of the same compound?
Answer: Its Tumor volume is 345.18 ± 306.01 mm^3.

Question: What about the “TGI (tumor growth inhibition rate)” value ([4]; day of dissection) of the same compound?
Answer: Its value is 90.07%.

Question: What about the “Tumor inhibition rate (by tumor weight)” value ([4]; end of the test) of the same compound?
Answer: The value was 91.50%.

Question: And the Tumor weight ([4]; end of the test)?
Answer: Its Tumor weight is 0.15 ± 0.14 g.

Question: And the “Rate of change in body weight (%) of day 11 to day 0” value [5]?
Answer: Its value is 2.1%.

Question: What about the General observations ([5]; the 1# animal, possibly associated with the administration operation) of the same compound?
Answer: Its General observations is “developed thorax congestion at D8 and died at D10”.

Question: What about the Body weight ([5]; Day 0) of the same compound?
Answer: The Body weight was 23.5 ± 1.2 g.

Question: And the Body weight ([5]; Day 3)?
Answer: Its Body weight is 24.4 ± 1.1 g.

Question: And the Body weight ([5]; Day 5)?
Answer: Its Body weight is 24.4 ± 0.9 g.

Question: And the Body weight ([5]; Day 7)?
Answer: The Body weight was 24.6 ± 0.9 g.

Question: And the Body weight ([5]; Day 9)?
Answer: The Body weight was 24.4 ± 1.2 g.

Question: What about the Body weight ([5]; Day 11) of the same compound?
Answer: The Body weight was 24.0 ± 1.7 g.

Reference: patent publication US20210403485A1, “PYRAZOLOPYRIMIDINE DERIVATIVE AS SELECTIVE TRK INHIBITOR” (SHANDONG LUYE PHARMACEUTICAL CO., LTD., priority 2018, published 2021)
